{"source": "patent US20080090834A1", "about": "“SELECTIVE AZOLE PDE10A INHIBITOR COMPOUNDS” (Pfizer Inc, priority 2006, published 2008)", "biological_target": "T1, cloned rat PDE10A full-length enzyme (Rattus norvegicus, UniProt Q9QYJ6)", "T1 construct": "cloned rat PDE10A full-length enzyme grown in transfected Sf9 insect cells; made in house; host or cells: Sf9 insect cells", "T1 sequence (Q9QYJ6 1-794)": "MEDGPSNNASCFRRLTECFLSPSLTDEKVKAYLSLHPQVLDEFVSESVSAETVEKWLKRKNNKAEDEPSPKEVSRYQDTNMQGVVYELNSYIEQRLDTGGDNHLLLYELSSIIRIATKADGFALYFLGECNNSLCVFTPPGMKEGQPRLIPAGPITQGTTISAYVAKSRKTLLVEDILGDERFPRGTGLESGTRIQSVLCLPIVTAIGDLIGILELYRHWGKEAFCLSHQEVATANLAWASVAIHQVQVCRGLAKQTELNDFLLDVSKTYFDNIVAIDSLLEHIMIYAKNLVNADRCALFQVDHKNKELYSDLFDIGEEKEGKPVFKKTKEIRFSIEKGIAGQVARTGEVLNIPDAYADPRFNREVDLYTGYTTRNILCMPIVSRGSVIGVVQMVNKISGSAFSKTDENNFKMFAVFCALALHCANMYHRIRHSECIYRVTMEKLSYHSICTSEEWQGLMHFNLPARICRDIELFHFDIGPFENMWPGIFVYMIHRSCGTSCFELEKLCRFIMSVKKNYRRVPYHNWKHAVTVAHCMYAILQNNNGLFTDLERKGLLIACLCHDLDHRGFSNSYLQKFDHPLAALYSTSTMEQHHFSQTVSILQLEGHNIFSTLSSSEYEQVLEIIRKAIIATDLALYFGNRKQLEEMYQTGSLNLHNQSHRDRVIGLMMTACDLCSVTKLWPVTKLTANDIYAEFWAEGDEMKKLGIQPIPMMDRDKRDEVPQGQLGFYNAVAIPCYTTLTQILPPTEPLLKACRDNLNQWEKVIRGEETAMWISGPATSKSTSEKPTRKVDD", "assay": "PDE10 enzyme inhibition, [3H]cAMP scintillation proximity assay", "assay_type": "biochemical", "details": "rat PDE10A from Sf9 cells, 20 nM [3H]cAMP, SPA beads, 20 minute incubation at room temperature", "method": "Compounds of the present invention were evaluated for ability to inhibit PDE10 enzyme with the following Assay procedure\nThe enzyme used in the procedure was cloned rat PDE10A full-length enzyme grown in transfected Sf9 insect cells. Cloned enzyme was extracted from homogenized cell pellets and stored frozen in homogenizing buffer until use. Compounds were initially dissolved in 100% DMSO and diluted out in 20 percent DMSO/water solution. Final concentration of DMSO in the assay was 2 percent as compounds were tested in triplicate in 96 well plates. Compound solution was placed in well, then tritiated cyclic AMP (New England Nuclear NET275) in assay buffer was added at 20 nM concentration. Then PDE10 enzyme in assay buffer of 50 mM Tris, 8.3 mM MgCl2, pH 7.5 at room temperature was added for a final assay volume of 100 ul. Concentration of enzyme was added such that less than 10 percent of [3H]cAMP at 20 nM was converted to detectable end product, [3H]AMP bound to SPA (Scintillation Proximity Assay) beads. Phosphodiesterase scintillation proximity yttrium silicate beads from Amersham Biosciences (RPNQ0150) were added (50 ul at 20 mg/ml) after a 20 minute incubation at room temperature. Zinc sulphate as a component of the beads stops the phosphodiesterase reaction.\nNon-specific binding to SPA beads was determined by addition of 1 uM papaverine. Total conversion by enzyme without inhibitor of [3H]cAMP to [3H]AMP, as detected by scintillation of [3H]AMP bound to yttrium silicate beads, was determined in the presence of vehicle-only.", "note": "Where a name gives a salt, the structure may show the parent alone."}
{"compound": "3-(4-(5-(4-methoxyphenyl)-2-(thiophen-2-yl)-1H-imidazol-4-yl)phenyl)-3H-imidazol[4,5-b]pyridine and 1-(4-(5-(4-methoxyphenyl)-2-(thiophen-2-yl)-1H-imidazo[4,5-b]pyridine [Example 101]", "values": [{"measurement": "IC50", "value": 0.708, "unit": "nM"}]}
{"compound": "c1ccc(-c2cn(-c3cccnc3)c(-c3ccc(-n4cnc5ncccc54)cc3)n2)nc1", "note": "(single isomer, unassigned) [Example 46, 1-(4-(4-(pyridin-2-yl)-1-(pyridin-3-yl)-1H-imidazol-2-yl)phenyl)-1H-imidazo[4,5-b]pyridine bis-trifluororoacetic acid salt]", "values": [{"measurement": "IC50", "value": 231, "unit": "nM"}]}
{"compound": "Cc1ccc(-n2cc(-c3ccccn3)nc2-c2ccc(-n3cnc4ncccc43)cc2)cn1", "note": "(single isomer, unassigned) [Example 48]", "values": [{"measurement": "IC50", "value": 63.7, "unit": "nM"}]}
{"compound": "Cc1ccc(-n2cc(-c3ccccn3)nc2-c2ccc(-n3cnc4cccnc43)cc2)cn1", "note": "(single isomer, unassigned) [Example 49, 3-(4-(1-(6-methylpyridin-3-yl)-4-(pyridin-2-yl)-1H-imidazol-2-yl)phenyl)-3H-imidazo[4,5-b]pyridine]", "values": [{"measurement": "IC50", "value": 5.5, "unit": "nM"}]}
{"compound": "COc1ccc(-n2cc(-c3cccs3)nc2-c2ccc(-n3ccc4cccnc43)cc2)cc1", "note": "[Example 1]", "values": [{"measurement": "IC50", "value": 3.35, "unit": "nM"}]}
{"compound": "COc1ccc(-n2cc(-c3nccs3)nc2-c2ccc(-n3ccc4cccnc43)cc2)cc1", "note": "[Example 2, 1-(4-(1-(4-methoxyphenyl)-4-(thiazol-2-yl)-1H-imidazol-2-yl)phenyl)-1H-pyrrolo[2,3-b]pyridine]", "values": [{"measurement": "IC50", "value": 156, "unit": "nM"}]}
{"compound": "c1cnc2c(c1)ccn2-c1ccc(-c2nc(-c3nccs3)cn2-c2nccs2)cc1", "note": "[Example 3, 1-(4-(1,4-di(thiazol-2-yl)-1H-imidazol-2-yl)phenyl)-1H-pyrrolo[2,3-b)pyridine]", "values": [{"measurement": "IC50", "value": 1610, "unit": "nM"}]}
{"compound": "c1ccc(-c2cn(-c3cncnc3)c(-c3ccc(-n4ccc5cccnc54)cc3)n2)nc1", "note": "[Example 4]", "values": [{"measurement": "IC50", "value": 13.6, "unit": "nM"}]}
{"compound": "Cc1cc(-n2cc(-c3ccccn3)nc2-c2ccc(-n3ccc4cccnc43)cc2)ccn1", "note": "[Example 5, 1-(4-(1-(2-methylpyridin-4-(pyridin-2-yl)-1H-imidazol-2-yl)-1H-imidazol-2-yl)phenyl)-1H-pyrrolo[2,3-b]pyridine]", "values": [{"measurement": "IC50", "value": 4.62, "unit": "nM"}]}
{"compound": "Cc1ccc(-n2cc(-c3ccccn3)nc2-c2ccc(-n3ccc4cccnc43)cc2)cn1", "note": "[Example 6, 1-(4-(1-(6-methylpyridine-3-yl)-4-(pyridin-2-yl)-1H-imidazol-2-yl)phenyl)-1H-pyrrolo[2,3-b]pyridine]", "values": [{"measurement": "IC50", "value": 3.21, "unit": "nM"}]}
{"compound": "c1ccc(-c2cn(-c3ccc(-n4ccnc4)nc3)c(-c3ccc(-n4ccc5cccnc54)cc3)n2)nc1", "note": "[Example 8, 1-(4-(1-(6-(1H-imidazol-1-yl)pyridin-3-yl)-4-(pyridin-2-yl)-1H-imidazol-2-yl)phenyl)-1-H-pyrrolo[2,3-b]pyridine]", "values": [{"measurement": "IC50", "value": 1.48, "unit": "nM"}]}
{"compound": "COc1ccc(-n2cc(-c3ccccn3)nc2-c2ccc(-n3ccc4cccnc43)cc2)cn1", "note": "[Example 9, 1-(4-(1-(6-methoxypyridin-3-yl)-4-(pyridin-2-yl)-1H-imidazol-2-yl)phenyl)-1H-pyrrolo[2,3-b]pyridine]", "values": [{"measurement": "IC50", "value": 3.07, "unit": "nM"}]}
{"compound": "CN(C)CCc1cn(-c2ccc(-c3nc(-c4ccccn4)cn3-c3cccnc3)cc2)c2ncccc12", "note": "[Example 10, N,N-dimethyl-2-(1-(4-(4-(pyridin-2-yl)-1-(pyridin-3-yl)-1H-imidazol-2-yl)phenyl)-1H-pyrrolo[2,3-b]pyridin-3-yl)ethanamine]", "values": [{"measurement": "IC50", "value": 8.99, "unit": "nM"}]}
{"compound": "Fc1cc(-n2ccc3cccnc32)ccc1-c1nc(-c2ccccn2)cn1-c1cccnc1", "note": "[Example 11, 1-(3-fluoro-4-(4-(pyridin-2-yl)-1-(pyridin-3-yl)-1H-imidazol-2-yl)phenyl)-1H-pyrrolo[2,3-b]pyridine]", "values": [{"measurement": "IC50", "value": 4.14, "unit": "nM"}]}
{"compound": "Cc1ccc(-n2cc(-c3ccccn3)nc2-c2ccc(-n3ccc4cccnc43)c(C)c2)cn1", "note": "[Example 12, 1-(2-methyl-4-(1-(6-methylpyridin-3-yl)-4-(pyridin-2-yl)-1H-imidazol-2-yl)phenyl)-1H-pyrrolo[2,3-b]pyridine]", "values": [{"measurement": "IC50", "value": 31.7, "unit": "nM"}]}
{"compound": "Cc1ccc(-n2cc(-c3ccccn3)nc2-c2ccc(-n3ccc4cccnc43)cc2C)cn1", "note": "[Example 13, 1-(3-methyl-4-(1-(6-methylpyridin-3-yl)-4-(pyridin-2-yl)-1H-imidazol-2-yl)phenyl)-1H-pyrrolo[2,3-b]pyridin]", "values": [{"measurement": "IC50", "value": 37.1, "unit": "nM"}]}
{"compound": "Cc1ccc(-n2cc(-c3cccc[n+]3[O-])nc2-c2ccc(-n3ccc4cccnc43)cc2)c[n+]1[O-]", "note": "[Example 15]", "values": [{"measurement": "IC50", "value": 16.4, "unit": "nM"}]}
{"compound": "Cc1ccc(-n2cc(-c3cccc[n+]3[O-])nc2-c2ccc(-n3ccc4cccnc43)cc2)cn1", "note": "[Example 16, 1-(4-(1-(6-methylpyridin-3-yl)-4-(1-oxido-pyridin-2-yl)-1H-imidazol-2-yl)phenyl)-1H-pyrrolo[2,3-b]pyridine]", "values": [{"measurement": "IC50", "value": 12.3, "unit": "nM"}]}
{"compound": "c1ccc(-c2cn(-c3cccnc3)c(-c3ccc(-n4c5c(c6cccnc64)CSCC5)cc3)n2)nc1", "note": "[Example 17, 9-[4-(4-pyridin-2-yl-1-pyridin-3-yl-1H-imidazol-2-yl)phenyl]-5,7,8,9-tetrahydrothiopyrano[3′,4′,4,5]pyrrolo[2,3-b]pyridine]", "values": [{"measurement": "IC50", "value": 0.912, "unit": "nM"}]}
{"compound": "CN(C)Cc1cn(-c2ccc(-c3nc(-c4ccccn4)cn3-c3cccnc3)cc2)c2ncccc12", "note": "[Example 18, N,N-dimethyl(1-(4-(4-(pyridin-2-yl)-1-(pyridin-3-yl)-1H-imidazol-2-yl)phenyl)-1H-pyrrolo[2,3-b]pyridin-3-yl)methanamine TFA salt]", "values": [{"measurement": "IC50", "value": 24.3, "unit": "nM"}]}
{"compound": "c1ccc(-c2cn(-c3cccnc3)c(-c3ccc(-n4c5ccccc5c5cccnc54)cc3)n2)nc1", "note": "[Example 19, 9-(4-(4-(pyridin-2-yl)-1-(pyridin-3-yl)-1H-imidazol-2-yl)phenyl)-9H-pyrido[2,3-b]indole]", "values": [{"measurement": "IC50", "value": 0.992, "unit": "nM"}]}
{"compound": "Cc1ccc(-n2cc(-c3ccccn3)nc2-c2ccc(-n3ccc4cc(Cl)cnc43)cc2)cn1", "note": "[Example 20, 5-chloro-1-(4-(4-pyridin-2-yl)-1-(6-methylpyridin-3-yl-1H-imidazol-2-yl)phenyl)-1H-pyrrolo[2,3-b]pyridine]", "values": [{"measurement": "IC50", "value": "< 2.72", "unit": "nM"}]}
{"compound": "Cc1ccc(-n2cc(-c3ccccn3)nc2-c2ccc(-n3ccc4cc(F)cnc43)cc2)cn1", "note": "[Example 21, 5-fluoro-1-(4-(1-(6-methylpyridin-3-yl)-4-(pyridin-2x-yl)-1H-imidazol-2-yl)phenyl)-1H-pyrrolo-[2,3-b]pyridine]", "values": [{"measurement": "IC50", "value": 2.82, "unit": "nM"}]}
{"compound": "Cc1cnc2c(ccn2-c2ccc(-c3nc(-c4ccccn4)cn3-c3ccc(C)nc3)cc2)c1", "note": "[Example 22, 5-methyl-1-(4-(1-[6-methylpyridin-3-yl)-4-(pyridin-2-yl)-1H-imidazol-2-yl)phenyl)-1H-pyrrolo[2,3-b]pyridine]", "values": [{"measurement": "IC50", "value": 12.1, "unit": "nM"}]}
{"compound": "C#Cc1cc(C)cnc1N", "note": "[Example 22A, 3-ethynyl-5-methylpyridin-2-amine]", "values": [{"measurement": "IC50", "value": 3.35, "unit": "nM"}]}
{"compound": "c1ccc(-n2cc(-c3nccs3)nc2-c2ccc(-n3ccc4cccnc43)cc2)nc1", "note": "[Example 24]", "values": [{"measurement": "IC50", "value": 13.4, "unit": "nM"}]}
{"compound": "c1cnc2c(c1)ccn2-c1ccc(-c2nc(-c3nccs3)cn2-c2ccncc2)cc1", "note": "[Example 25, 1-(4-(1-(pyridin-4-yl)-4-(thiazol-2-yl)-1H-imidazol-2-yl)phenyl)-1H-pyrrolo[2,3-b]pyridine]", "values": [{"measurement": "IC50", "value": 4.46, "unit": "nM"}]}
{"compound": "c1cnc2c(c1)ccn2-c1ccc(-c2nc(-c3nccs3)cn2-c2cncnc2)cc1", "note": "[Example 26, 1-(4-(1-(pyrimidin-5-yl)-4-(thiazol-2-yl)-1H-imidazol-2-yl)phenyl)-1H-pyrrolo[2,3-b]pyridine]", "values": [{"measurement": "IC50", "value": 4.4, "unit": "nM"}]}
{"compound": "Cc1ccc(-n2cc(-c3nccs3)nc2-c2ccc(-n3ccc4cccnc43)cc2)cn1", "note": "[Example 27, 1-(4-(1-(6-methylpyridin-3-yl)-4-(thiazol-2-yl)-1H-imidazol-2-yl)phenyl)-1H-pyrrolo[2,3-b]pyridine]", "values": [{"measurement": "IC50", "value": 1.48, "unit": "nM"}]}
{"compound": "Cc1ncccc1-n1cc(-c2nccs2)nc1-c1ccc(-n2ccc3cccnc32)cc1", "note": "[Example 28, 1-(4-(1-(2-methylpyridin-3-yl)-4-(thiazol-2-yl)-1H-imidazol-2-yl)phenyl]-1H-pyrrolo[2,3-b]pyridine]", "values": [{"measurement": "IC50", "value": 44.1, "unit": "nM"}]}
